Laboratory results from patent US10590086B2, “Pharmaceutical compound” (IOmet Pharma Ltd., priority 2014, dated 2020).

Legend:
TDO = TDO (Homo sapiens, UniProt P48775); assay: A172 kynurenine cell-based assay; design: This assay utilised cancer cells which expressed either TDO or IDO; endogenous in cells; host or cells: A172 (human glioblastoma); conditions: A172 human glioblastoma cells, 48 hours, 500 μM L-tryptophan; read-out: A172 Kynurenine cell based assay pIC50 (converted)
Protocol: (§1) Exemplary compounds of the invention were prepared, and tested to determine their effect as TDO and/or IDO inhibitors. Two different assays were employed: 1. a cell-based assay for detecting the effect of test compounds on kynurenine production in two different cancer cell types. This assay utilised cancer cells which expressed either TDO or IDO and as such was used as a means of testing compound activity at these two enzymes in a cell-based context. 2. a TDO and IDO biochemical coupled assay which utilised recombinantly produced and purified TDO and IDO enzymes in combination with the enzyme formamidase. This coupled enzyme system allowed conversion of N-formylkynurenine produced by TDO or IDO activity to kynurenine which was then quantified by fluorescence following addition of Erhlich's Reagent The protocols for these are set out below.
(§2) Cell Based Assay for Detection of Kynurenine Produced by TDO and/or IDO
(§3) A172 (human glioblastoma) and SKOV3 (human ovarian adenocarcinoma) cells were seeded in a 96 well plate at 30,000 or 40,000 cells per well respectively in phenol red-free RPMI supplemented with 10% FCS, 2 mM L-glutamine and 500 μM L-tryptophan. IDO expression was induced in the SKOV3 cells by the addition of 500 ng/ml IFN-γ. Cells were incubated at 37° C. with or without the addition of test compound. After 48 hours, the cells were removed by centrifugation and Erhlich's reagent was added to the supernatant. The Erhlich's reagent was incubated for 5 minutes before the absorbance was read at 490 nm.

IDO = IDO (Homo sapiens, UniProt P14902); assay: SKOV3 kynurenine cell-based assay (IDO induced by IFN-γ); design: IDO expression was induced in the SKOV3 cells by the addition of 500 ng/ml IFN-γ; endogenous in cells; host or cells: SKOV3 (human ovarian adenocarcinoma), induced with IFN-γ; conditions: SKOV3 human ovarian adenocarcinoma cells, 500 ng/ml IFN-γ, 48 hours, 500 μM L-tryptophan; read-out: SKOV3 Kynurenine cell based assay pIC50 (converted)
Protocol: as §1, §2, §3

Chain of IDO (P14902 whole entry): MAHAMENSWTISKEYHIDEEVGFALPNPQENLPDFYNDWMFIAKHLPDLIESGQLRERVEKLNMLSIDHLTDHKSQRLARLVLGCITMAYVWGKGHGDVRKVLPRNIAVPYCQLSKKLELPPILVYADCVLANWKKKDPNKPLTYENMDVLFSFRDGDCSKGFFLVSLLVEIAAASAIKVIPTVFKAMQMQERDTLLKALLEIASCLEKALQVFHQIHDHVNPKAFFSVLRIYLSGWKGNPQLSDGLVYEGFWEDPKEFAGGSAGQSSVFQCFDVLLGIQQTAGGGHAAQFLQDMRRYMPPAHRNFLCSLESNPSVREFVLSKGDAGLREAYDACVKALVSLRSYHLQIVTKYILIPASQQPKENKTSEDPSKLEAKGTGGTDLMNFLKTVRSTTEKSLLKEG
Chain of TDO (P48775 whole entry): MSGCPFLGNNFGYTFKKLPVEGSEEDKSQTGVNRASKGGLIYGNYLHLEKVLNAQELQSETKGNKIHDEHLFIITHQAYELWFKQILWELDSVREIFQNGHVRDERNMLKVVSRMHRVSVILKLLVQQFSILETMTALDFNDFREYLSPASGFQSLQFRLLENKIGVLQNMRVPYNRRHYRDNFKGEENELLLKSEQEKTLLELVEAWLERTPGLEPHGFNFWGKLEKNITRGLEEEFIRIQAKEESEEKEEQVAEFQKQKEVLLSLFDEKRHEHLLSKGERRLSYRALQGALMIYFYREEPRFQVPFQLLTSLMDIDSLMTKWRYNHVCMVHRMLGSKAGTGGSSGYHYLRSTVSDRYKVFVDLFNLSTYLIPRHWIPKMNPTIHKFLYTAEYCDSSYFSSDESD

Row | SMILES | IC50 (TDO) [µM] | IC50 (IDO) [µM]
1 | CC(=O)Nc1cccc2[nH]ncc12 [Compound 6] | 32.4 to 100 | > 100
2 | O=S(=O)(Cc1ccccc1)N1CCN(c2cccc3[nH]ncc23)CC1 [Compound 13] | 3.24 to 31.6 | 32.4 to 100
3 | CCCS(=O)(=O)N1CCN(c2cccc3[nH]ncc23)CC1 [Compound 16] | 3.24 to 31.6 | 32.4 to 100
4 | O=S(=O)(CC(F)(F)F)N1CCN(c2cccc3[nH]ncc23)CC1 [Compound 18] | 32.4 to 100 | > 100
5 | NS(=O)(=O)N1CCN(c2cccc3[nH]ncc23)CC1 [Compound 20] | 3.24 to 31.6 | 3.24 to 31.6
6 | COCCS(=O)(=O)N1CCN(c2cccc3[nH]ncc23)CC1 [Compound 23] | > 100 | 32.4 to 100
7 | CNS(=O)(=O)N1CCN(c2cccc3[nH]ncc23)CC1 [Compound 24] | 3.24 to 31.6 | 32.4 to 100
8 | CC(=O)N1CCN(c2cccc3[nH]ncc23)CC1C (stereo not drawn) [Compound 27] | 3.24 to 31.6 | 32.4 to 100
9 | CC1CN(c2cccc3[nH]ncc23)CCN1S(C)(=O)=O (stereo not drawn) [Compound 29] | 3.24 to 31.6 | 32.4 to 100
10 | Cc1cc(N2CCN(S(C)(=O)=O)CC2)c2cn[nH]c2c1 [Compound 31] | < 3.16 | 32.4 to 100
11 | CS(=O)(=O)N1CCC(c2cc(-c3ccccc3)cc3[nH]ncc23)CC1 [Compound 32] | 3.24 to 31.6 | 32.4 to 100
12 | CS(=O)(=O)N1CCN(c2cc(-c3ccccc3)cc3[nH]ncc23)CC1 [Compound 33] | 3.24 to 31.6 | 32.4 to 100
13 | Cc1ccc(C2CCN(S(C)(=O)=O)CC2)c2cn[nH]c12 [Compound 39] | > 100 | 32.4 to 100
14 | CS(=O)(=O)N1CCC(c2ccc(Cl)c3[nH]ncc23)CC1 [Compound 42] | 32.4 to 100 | 3.24 to 31.6
15 | CS(=O)(=O)N1CCN(c2ccc3[nH]ncc3c2)CC1 [Compound 43] | 3.24 to 31.6 | 32.4 to 100
16 | CC(=O)N1CCN(c2cc(Cl)cc3[nH]ncc23)CC1(C)C [Compound 46] | < 3.16 | < 3.16
17 | CN1CC2CN(c3cccc4[nH]ncc34)CCN2C1=O (stereo not drawn) [Compound 47] | 3.24 to 31.6 | > 100
18 | CC(=O)N1CCN(c2cc(C(F)(F)F)cc3[nH]ncc23)CC1 [Compound 48] | < 3.16 | 3.24 to 31.6
19 | CS(=O)(=O)N1CCN(c2cc(C(F)(F)F)cc3[nH]ncc23)CC1 [Compound 49] | < 3.16 | 3.24 to 31.6
20 | c1ccc(CCNc2cccc3[nH]ncc23)cc1 [Compound 50] | 32.4 to 100 | 32.4 to 100
21 | CC(=O)N1CCN(c2cc(F)cc3[nH]ncc23)CC1 [Compound 51] | 3.24 to 31.6 | > 100
22 | CS(=O)(=O)N1CCC(Oc2cccc3[nH]ncc23)CC1 [Compound 52] | 3.24 to 31.6 | 32.4 to 100

Row | SMILES | IC50 (TDO) [µM] | IC50 (IDO) [µM]
23 | CC(=O)N1CCC(Oc2cccc3[nH]ncc23)CC1 [Compound 53] | 3.24 to 31.6 | < 3.16
24 | O=S(=O)(C1CC1)N1CCN(c2cc(Cl)cc3[nH]ncc23)CC1 [Compound 54] | < 3.16 | 3.24 to 31.6
25 | O=S(=O)(c1ccccc1)N1CCN(c2cc(Cl)cc3[nH]ncc23)CC1 [Compound 55] | < 3.16 | 3.24 to 31.6
26 | O=S(=O)(Cc1ccccc1)N1CCN(c2cc(Cl)cc3[nH]ncc23)CC1 [Compound 56] | < 3.16 | 3.24 to 31.6
27 | O=S(=O)(C1CCCC1)N1CCN(c2cc(Cl)cc3[nH]ncc23)CC1 [Compound 57] | < 3.16 | 3.24 to 31.6
28 | CC(=O)N1CCCN(c2cccc3[nH]ncc23)CC1 [Compound 58] | 3.24 to 31.6 | > 100
29 | CNC(=O)CN1CCN(c2cc(Cl)cc3[nH]ncc23)CC1 [Compound 59] | < 3.16 | 3.24 to 31.6
30 | CS(=O)(=O)N1CCCN(c2cccc3[nH]ncc23)CC1 [Compound 60] | 3.24 to 31.6 | > 100
31 | CC(C)S(=O)(=O)N1CCN(c2cc(Cl)cc3[nH]ncc23)CC1 [Compound 61] | < 3.16 | 3.24 to 31.6
32 | CN(CCNc1cccc2[nH]ncc12)S(C)(=O)=O [Compound 62] | 32.4 to 100 | > 100
33 | CCCS(=O)(=O)N1CCN(c2cc(Cl)cc3[nH]ncc23)CC1 [Compound 63] | < 3.16 | 3.24 to 31.6
34 | COCCS(=O)(=O)N1CCN(c2cc(Cl)cc3[nH]ncc23)CC1 [Compound 64] | < 3.16 | 3.24 to 31.6
35 | CN(C)C(=O)CN1CCN(c2cc(Cl)cc3[nH]ncc23)CC1 [Compound 65] | 3.24 to 31.6 | 32.4 to 100
36 | Cc1n[nH]c2cc(Cl)cc(N3CCN(S(C)(=O)=O)CC3)c12 [Compound 66] | 3.24 to 31.6 | 3.24 to 31.6
37 | CC(C)c1cc(N2CCN(S(C)(=O)=O)CC2)c2cn[nH]c2c1 [Compound 67] | 3.24 to 31.6 | 32.4 to 100
38 | CC(=O)N1CCN(c2cc(C(C)C)cc3[nH]ncc23)CC1 [Compound 68] | 3.24 to 31.6 | > 100
39 | COc1cc(N2CCN(S(C)(=O)=O)CC2)c2cn[nH]c2c1 [Compound 69] | 3.24 to 31.6 | > 100
40 | COc1cc(N2CCN(C(C)=O)CC2)c2cn[nH]c2c1 [Compound 70] | 3.24 to 31.6 | > 100
41 | CC(=O)N1CCCN(c2cc(Cl)cc3[nH]ncc23)CC1 [Compound 71] | < 3.16 | 3.24 to 31.6
42 | CS(=O)(=O)N1CCCN(c2cc(Cl)cc3[nH]ncc23)CC1 [Compound 72] | < 3.16 | 3.24 to 31.6
43 | CC1CN(c2cc(Cl)cc3[nH]ncc23)CCN1S(C)(=O)=O (stereo not drawn) [Compound 73] | < 3.16 | < 3.16
44 | CC(=O)N1CCN(c2cc(Cl)cc3[nH]ncc23)CC1C (stereo not drawn) [Compound 74] | < 3.16 | 3.24 to 31.6

Row | SMILES | IC50 (TDO) [µM] | IC50 (IDO) [µM]
45 | CS(=O)(=O)N1CCC(Nc2cccc3[nH]ncc23)CC1 [Compound 75] | 32.4 to 100 | > 100
46 | CC(=O)N1CCN(c2cc(Br)cc3[nH]ncc23)CC1 [Compound 76] | < 3.16 | 3.24 to 31.6
47 | CS(=O)(=O)N1CC=C(c2cc(Cl)cc3[nH]ncc23)CC1 [Compound 77] | < 3.16 | 3.24 to 31.6
48 | CC(=O)N1CCN(c2cc(C(F)(F)F)cc3[nH]ncc23)CC1(C)C [Compound 79] | < 3.16 | < 3.16
49 | CNC(=O)N1CCN(c2cc(Cl)cc3[nH]ncc23)CC1 [Compound 80] | < 3.16 | 3.24 to 31.6
50 | NS(=O)(=O)N1CCN(c2cc(Cl)cc3[nH]ncc23)CC1 [Compound 81] | < 3.16 | 3.24 to 31.6
51 | CN(C)C(=O)N1CCN(c2cc(Cl)cc3[nH]ncc23)CC1 [Compound 82] | < 3.16 | 3.24 to 31.6
52 | CCC1CN(c2cc(Cl)cc3[nH]ncc23)CCN1S(C)(=O)=O (stereo not drawn) [Compound 83] | < 3.16 | 3.24 to 31.6
53 | CCC1CN(c2cc(Cl)cc3[nH]ncc23)CCN1C(C)=O (stereo not drawn) [Compound 84] | < 3.16 | 3.24 to 31.6
54 | OCCOc1cc(Cl)cc2[nH]ncc12 [Compound 85] | 3.24 to 31.6 | 32.4 to 100
55 | CC(=O)N1CCC(c2cc(C3CC3)cc3[nH]ncc23)CC1 [Compound 86] | 3.24 to 31.6 | 3.24 to 31.6
56 | CS(=O)(=O)N1CCC(c2cc(C3CC3)cc3[nH]ncc23)CC1 [Compound 87] | < 3.16 | 3.24 to 31.6
57 | O=C1NCC2CN(c3cc(Cl)cc4[nH]ncc34)CCN12 (stereo not drawn) [Compound 88] | < 3.16 | 3.24 to 31.6
58 | O=S1(=O)CCC2CN(c3cc(Cl)cc4[nH]ncc34)CCN21 (stereo not drawn) [Compound 89] | < 3.16 | 3.24 to 31.6
59 | CC(=O)N1CCN(c2cc(Br)cc3[nH]ncc23)CC1(C)C [Compound 90] | < 3.16 | < 3.16
60 | Clc1cc(N2CCN(c3ccccc3)CC2)c2cn[nH]c2c1 [Compound 92] | < 3.16 | 3.24 to 31.6
61 | CC(=O)N1CCN(c2cc(Cl)cc3[nH]ncc23)CC12CC2 [Compound 93] | < 3.16 | 3.24 to 31.6
62 | CS(=O)(=O)N1CCN(c2cc(Cl)cc3[nH]ncc23)CC12CC2 [Compound 94] | < 3.16 | 3.24 to 31.6
63 | CN1CCN(c2cc(Cl)cc3[nH]ncc23)CC1 [Compound 95] | 3.24 to 31.6 | > 100
64 | CS(=O)(=O)N1CCN(c2cc(Br)cc3[nH]ncc23)CC1 [Compound 96] | < 3.16 | 3.24 to 31.6
65 | CS(=O)(=O)NCC1CCN(c2cc(Cl)cc3[nH]ncc23)CC1 [Compound 98] | < 3.16 | 3.24 to 31.6
66 | CC(=O)N1CCC(c2cc(C(F)(F)F)cc3[nH]ncc23)CC1 [Compound 99] | < 3.16 | 3.24 to 31.6
